Experiment [1] deals with T1, phosphor-EGFR in H1975(L585R/T790M) mutant EGFR expressing cells (Homo sapiens, UniProt P00533, L858R/T790M).
T1 construct: host or cells: NCI-H1975
The experiment is described as follows: H1975 pEGFR MSD cellular assay. It counts as cell-based. As to conditions: NCI-H1975 cells, serum starved, 1 hour compound incubation, pEGFR Tyr1068 MSD; read-out: HI975 pEGFR EC50. The gist of the method: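 Phospho-EGFR read by MSD electrochemiluminescence: capture with anti-pEGFR antibody (overnight, 4° C), detection with SULFO-TAG anti-total EGFR (1 hour, room temperature). Before lysis, H1975 cells starved of serum overnight got compound for 1 hour at 37° C, 0.5% DMSO final. EC50 via four-parameter logistic regression of percent inhibition.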

Experiment [2] has as its target T2, EGFR del746-750 T790M (Homo sapiens, UniProt P00533, DEL746-750/T790M).
T2 construct: purchased Carna Biosciences 08-528
The experiment is described as follows: EGFR del746-750 T790M biochemical assay (Caliper mobility shift). The following applies: 5 μM ATP; apparent Ki (Morrison fit) converted by Cheng-Prusoff, Km of ATP 2.1 μM; read-out: EGFR(T790M/d746-750) Ki. The method in brief: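 Caliper mobility-shift read-out, with product electrophoretically resolved from substrate and measured. Reactions were quenched with 80 mM EDTA after 30 min at 22 °C.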

The target of experiment [3] is T3, EGFR T790M L858R (Homo sapiens, UniProt P00533, L858R/T790M).
T3 construct: purchased Life Technologies PV4879
T3 sequence (P00533 25-1210 T790M/L858R): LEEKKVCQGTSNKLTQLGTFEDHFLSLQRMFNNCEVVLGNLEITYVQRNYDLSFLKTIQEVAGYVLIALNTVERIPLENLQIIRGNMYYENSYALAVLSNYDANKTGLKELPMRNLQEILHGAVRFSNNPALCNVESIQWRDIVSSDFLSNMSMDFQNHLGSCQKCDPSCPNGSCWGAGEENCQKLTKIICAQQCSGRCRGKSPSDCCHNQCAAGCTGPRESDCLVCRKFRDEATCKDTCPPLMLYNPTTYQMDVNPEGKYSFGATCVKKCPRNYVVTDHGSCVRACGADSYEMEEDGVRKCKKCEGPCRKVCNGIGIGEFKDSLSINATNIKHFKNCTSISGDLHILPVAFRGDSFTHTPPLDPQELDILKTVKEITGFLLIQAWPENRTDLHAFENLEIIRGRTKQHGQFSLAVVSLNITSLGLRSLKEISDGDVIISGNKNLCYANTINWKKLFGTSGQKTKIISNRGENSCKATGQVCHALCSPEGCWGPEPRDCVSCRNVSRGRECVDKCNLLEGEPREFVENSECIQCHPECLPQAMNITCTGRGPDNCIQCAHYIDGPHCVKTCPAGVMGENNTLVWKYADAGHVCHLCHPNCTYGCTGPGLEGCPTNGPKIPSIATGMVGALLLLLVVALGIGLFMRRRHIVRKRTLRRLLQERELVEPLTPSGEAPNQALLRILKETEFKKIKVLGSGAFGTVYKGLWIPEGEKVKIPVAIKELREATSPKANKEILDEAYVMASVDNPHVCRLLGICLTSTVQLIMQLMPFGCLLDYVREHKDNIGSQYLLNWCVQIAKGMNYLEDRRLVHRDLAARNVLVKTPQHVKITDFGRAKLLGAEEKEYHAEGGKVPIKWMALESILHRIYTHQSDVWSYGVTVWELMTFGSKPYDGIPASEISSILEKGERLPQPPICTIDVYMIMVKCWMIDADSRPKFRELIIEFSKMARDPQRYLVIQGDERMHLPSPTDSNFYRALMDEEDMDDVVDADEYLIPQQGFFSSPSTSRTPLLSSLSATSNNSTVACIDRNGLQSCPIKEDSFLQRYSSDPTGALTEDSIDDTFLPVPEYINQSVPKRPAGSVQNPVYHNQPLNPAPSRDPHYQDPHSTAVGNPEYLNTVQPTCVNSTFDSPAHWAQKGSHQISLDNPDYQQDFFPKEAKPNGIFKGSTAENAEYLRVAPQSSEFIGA
The experiment is described as follows: EGFR T790M L858R biochemical assay (Caliper mobility shift). The following applies: 5 μM ATP; apparent Ki (Morrison fit) converted by Cheng-Prusoff, Km of ATP 1.3 μM. The gist of the method:
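Caliper mobility-shift read-out, electrophoretic separation of substrate from product, after a 30-minute kinase reaction at 22 °C. EDTA at 80 mM terminates each reaction.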

The subject of experiment [4] is H1975 (EGFR T790M/L858R) cell proliferation. The experiment is described as follows: H1975 proliferation assay (Cell Titer-Glo). It counts as cell-based. As to conditions: Homo sapiens, NCI-H1975, 72 h, NCI-H1975 cells, 72 hour incubation, read-out: H1975 antiproliferative EC50. The procedure:
H1975 Proliferation Assays
All cell culture reagents were purchased from Invitrogen/Gibco. Cells are cultured at 37° C. at 5% CO2 and split as recommended by ATCC.
On the technique in general: Cellular ATP, detected with luciferase, serves as a proxy for viable cell number.

This is an account of results in patent US9951064B2, “Azaindazole compounds as inhibitors of T790M containing EGFR mutants” (Genentech, Inc., priority 2013, dated 2018).

By EC50 is commonly meant the concentration giving half of the maximal effect.

Bounds are passed on as bounds.

T1 sequence (P00533 25-1210 T790M/L858R): as above
T2 sequence (P00533 with tags, fused parts or gaps DEL746-750/T790M limits assumed): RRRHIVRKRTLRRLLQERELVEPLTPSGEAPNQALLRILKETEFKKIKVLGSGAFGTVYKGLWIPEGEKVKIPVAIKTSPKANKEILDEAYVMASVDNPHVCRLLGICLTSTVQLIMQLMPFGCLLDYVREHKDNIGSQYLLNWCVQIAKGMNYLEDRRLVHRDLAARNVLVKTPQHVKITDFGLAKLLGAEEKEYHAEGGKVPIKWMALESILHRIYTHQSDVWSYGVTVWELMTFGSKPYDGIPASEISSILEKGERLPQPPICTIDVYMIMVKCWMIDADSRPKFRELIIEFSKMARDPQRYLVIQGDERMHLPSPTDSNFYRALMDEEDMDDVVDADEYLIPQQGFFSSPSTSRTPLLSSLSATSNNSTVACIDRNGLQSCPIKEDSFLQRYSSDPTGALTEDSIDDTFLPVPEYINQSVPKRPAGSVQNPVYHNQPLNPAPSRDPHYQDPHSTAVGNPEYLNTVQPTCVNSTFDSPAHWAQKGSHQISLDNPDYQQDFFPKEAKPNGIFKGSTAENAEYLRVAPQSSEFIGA

For `CC(C)n1nc(N2CCN(C)C2=O)c2cnc(Nc3ccnc(N4CCC(O)C(F)C4)n3)cc21` (stereo not drawn) [Example 76, 1-(6-(2-(cis-3-Fluoro-4-hydroxypiperidin-1-yl)pyrimidin-4-ylamino)-1-isopropyl-1H-pyrazolo[4,3-c]pyridin-3-yl)-3-methylimidazolidin-2-one], the EC50 in experiment [1] is 0.752 µM; in experiment [4], 1.18 µM. The Ki in experiment [2] was determined as 0.0138 µM; in experiment [3] it was 0.0051 µM.
As for `CC(C)n1nc(N2CCCC2)c2cnc(Nc3ccnc(N4CCC(O)C(C)(C)C4)n3)cc21` (stereo not drawn) [Example 8, 1-(4-((1-Isopropyl-3-(pyrrolidin-1-yl)-1H-pyrazolo[4,3-c]pyridin-6-yl)amino)pyrimidin-2-yl)-3,3-dimethylpiperidin-4-ol], the concentration giving a half-maximal response (EC50) in experiment [1] worked out at 0.0303 µM; in experiment [4], 0.499 µM. The Ki in experiment [2] and in experiment [3] was 0.0013 µM in each case.
As for `CCC(C)n1nc(N2CCS(=N)(=O)CC2)c2cnc(Nc3ccnc(N4CCC(C)(O)CC4)n3)cc21` (stereo not drawn) [Example 89, 4-[1-(sec-Butyl)-6-[[2-(4-hydroxy-4-methylpiperidin-1-yl)pyrimidin-4-yl]amino]-1H-pyrazolo[4,3-c]pyridin-3-yl]-1-imino-4-thiomorpholin-1-one], the EC50 in experiment [1] worked out at 5.26 µM; in experiment [4], 9.98 µM. For the same molecule, the Ki in experiment [2] stood at 0.0469 µM; in experiment [3], 0.0265 µM.
As to `CC[C@@H](C)n1nc(N2CC3(COC3)C2)c2cnc(Nc3ccnc(N4CC[C@@](C)(O)[C@@H](F)C4)n3)cc21` (single isomer, unassigned) [Example 68, (3R*,4S*)-1-{4-[1-((R)-sec-Butyl)-3-(2-oxa-6-azaspiro[3.3]hept-6-yl)-1H-pyrazolo[4,3-c]pyridin-6-ylamino]pyrimidin-2-yl}-3-fluoro-4-methylpiperidin-4-ol], the EC50 was determined as 0.157 µM in experiment [1] and 0.851 µM in experiment [4]. Also, the Ki in experiment [2] came out at 0.0102 µM; in experiment [3], 0.0032 µM.
On to `CC(C)n1nc(N2CCC(C)(C(N)=O)C2)c2cnc(Nc3ccnc(N4CCC(C)(O)CC4)n3)cc21` (stereo not drawn) [Example 157, 1-(6-(2-(4-Hydroxy-4-methylpiperidin-1-yl)pyrimidin-4-ylamino)-1-isopropyl-1H-pyrazolo[4,3-c]pyridin-3-yl)-3-methylpyrrolidine-3-carboxamide], for which the EC50 came out at 1.33 µM in experiment [1] and 2.86 µM in experiment [4]. In addition, the Ki in experiment [2] was found to be 0.0049 µM; in experiment [3], 0.0026 µM.
As to `CC(C)n1nc(N2CCC(O)C2)c2cnc(Nc3ccnc(-c4cnn(S(=O)(=O)C5CC5)c4)n3)cc21` (stereo not drawn) [Example 18, 1-(6-(2-(1-(Cyclopropylsulfonyl)-1H-pyrazol-4-yl)pyrimidin-4-ylamino)-1-isopropyl-1H-pyrazolo[4,3-c]pyridin-3-yl) pyrrolidin-3-ol], the EC50 in experiment [1] worked out at 0.0075 µM; in experiment [4], 0.201 µM. The Ki stood at 0.0006 µM in experiment [2] and 0.0008 µM in experiment [3].
For `CC(C)n1nc(N2CC3(COC3)C2)c2cnc(Nc3ccnc(N4CCC(O)C(C)(C)C4)n3)cc21` (stereo not drawn) [Example 3, 1-(4-((1-Isopropyl-3-(2-oxa-6-azaspiro[3.3]heptan-6-yl)-1H-pyrazolo[4,3-c]pyridin-6-yl)amino)pyrimidin-2-yl)-3,3-dimethylpiperidin-4-ol], the results for the concentration for a half-maximal effect (EC50) in experiment [1] and in experiment [4] were 0.0386 µM and 0.159 µM, respectively. Besides, the Ki in experiment [2] amounted to 0.0016 µM; in experiment [3], 0.0014 µM.
In the case of `CC(C)n1nc(NCCS(C)(=N)=O)c2cnc(Nc3ccnc(-c4cnn(S(=O)(=O)C5CC5)c4)n3)cc21` (stereo not drawn) [Example 125, N^6-(2-(1-(Cyclopropylsulfonyl)-1H-pyrazol-4-yl)pyrimidin-4-yl)-1-isopropyl-N^3-(2-(S-methylsulfonimidoyl)ethyl)-1H-pyrazolo[4,3-c]pyridine-3.6-diamine], the EC50 was 2.84 µM in experiment [1] and over 10 µM in experiment [4]. In addition, the figures for the Ki in experiment [2] and in experiment [3] were 0.0008 µM and 0.0011 µM, respectively.
Consider `CCC(C)n1nc(N2CC[C@@H](C(N)=O)C2)c2cnc(Nc3ccnc(N4CCC(C)(O)CC4)n3)cc21` (stereo partly drawn) [Example 145, (3R)-1-(1-sec-Butyl-6-(2-(4-hydroxy-4-methylpiperidin-1-yl)pyrimidin-4-ylamino)-1H-pyrazolo[4,3-c]pyridin-3-yl)pyrrolidine-3-carboxamide], for which the EC50 in experiment [1] is 0.921 µM; in experiment [4], 7.17 µM. Besides, the figures for the Ki in experiment [2] and in experiment [3] were 0.0016 µM and 0.0014 µM, respectively.
Take `CC1CNC(=O)N1c1nn(C(C)C)c2cc(Nc3ccnc(N4CC[C@H](O)[C@H](F)C4)n3)ncc12` (relative stereo) [Example 128, 1-(6-(2-(cis-3-Fluoro-4-hydroxypiperidin-1-yl)pyrimidin-4-ylamino)-1-isopropyl-1H-pyrazolo[4,3-c]pyridin-3-yl)-5-methylimidazolidin-2-one]: the concentration for a half-maximal effect (EC50) in experiment [1] was 0.919 µM; in experiment [4], 2.04 µM. Moreover, the Ki in experiment [2] was 0.0155 µM; in experiment [3] it was 0.0062 µM.
The corresponding values for `CC(C)n1nc(N2CC(F)(CO)C2)c2cnc(Nc3ccnc(N4CC[C@H](O)[C@H](F)C4)n3)cc21` (racemic) [Example 130, (±)-cis-3-Fluoro-1-(4-(3-(3-fluoro-3-(hydroxymethyl)azetidin-1-yl)-1-isopropyl-1H-pyrazolo[4,3-c]pyridin-6-ylamino)pyrimidin-2-yl)piperidin-4-ol] are 0.261 µM, 1.43 µM, 0.0033 µM and 0.0018 µM.
With `CCC(C)n1nc(N2CC(O)(CO)C2)c2cnc(Nc3ccnc(N4CCC(C)(O)CC4)n3)cc21` (racemic) [Example 80, (±)-1-(4-(1-sec-Butyl-3-(3-hydroxy-3-(hydroxymethyl)azetidin-1-yl)-1H-pyrazolo[4,3-c]pyridin-6-ylamino)pyrimidin-2-yl)-4-methylpiperidin-4-ol], the EC50 in experiment [1] was 4.37 µM; in experiment [4], over 10 µM. For the same molecule, the figures for the Ki in experiment [2] and in experiment [3] were 0.0094 µM and 0.0041 µM, respectively.
Consider `CC(C)n1nc(N2CC3(COC3)C2)c2cnc(Nc3ccnc(N4CC[C@](C)(O)[C@H](F)C4)n3)cc21` (racemic) [Example 64, (3RS,4SR)-3-Fluoro-1-{4-[1-isopropyl-3-(2-oxa-6-azaspiro[3,3]hept-6-yl)-1H-pyrazolo[4,3-c]pyridin-6-ylamino]pyrimidin-2-yl}-4-methylpiperidin-4-ol], for which the figures for the EC50 in experiment [1] and in experiment [4] were 0.223 µM and 0.701 µM, respectively. Also, the Ki was found to be 0.0161 µM in experiment [2] and 0.0036 µM in experiment [3].
On to `CC(C)n1nc(N2CC3(C2)CS(=O)(=O)C3)c2cnc(Nc3ccnc(N4CCC(C)(O)CC4)n3)cc21` [Example 160, 6-(6-((2-(4-Hydroxy-4-methylpiperidin-1-yl)pyrimidin-4-yl)amino)-1-isopropyl-1H-pyrazolo[4,3-c]pyridin-3-yl)-2-thia-6-azaspiro[3.3]heptane 2,2-dioxide], for which the EC50 in experiment [1] was 0.962 µM; in experiment [4], 3.09 µM. The Ki in experiment [2] amounted to 0.0097 µM; in experiment [3] it was 0.0051 µM.
Regarding `CCN1CCN(c2nn(C(C)C)c3cc(Nc4ccnc(-c5cnn(S(=O)(=O)C6CC6)c5)n4)ncc23)CC1` [Example 118, N-(2-(1-(Cyclopropylsulfonyl)-1H-pyrazol-4-yl)pyrimidin-4-yl)-3-(4-ethylpiperazin-1-yl)-1-isopropyl-1H-pyrazolo[4,3-c]pyridin-6-amine], the half-maximal effective concentration (EC50) was 0.134 µM in experiment [1] and 1.01 µM in experiment [4]. Moreover, the figures for the Ki in experiment [2] and in experiment [3] were 0.0011 µM and 0.0014 µM, respectively.
In the case of `CC1CN(c2nn(C(C)C)c3cc(Nc4ccnc(-c5cnn(S(=O)(=O)C6CC6)c5)n4)ncc23)C(=O)N1` (stereo not drawn) [Example 108, 1-(6-(2-(1-(Cyclopropylsulfonyl)-1H-pyrazol-4-yl)pyrimidin-4-ylamino)-1-isopropyl-1H-pyrazolo[4,3-c]pyridin-3-yl)-4-methylimidazolidin-2-one], the EC50 was determined as 0.113 µM in experiment [1] and 0.377 µM in experiment [4]. The Ki in experiment [2] came out at 0.0017 µM; in experiment [3] it was 0.0019 µM.
`COC1CCN(c2nccc(Nc3cc4c(cn3)c(N)nn4C[C@H]3CC[C@H](N)CC3)n2)CC1` [Example 24, 1-(4-(Aminocyclohexyl)methyl)-N^6-[2-(4-methoxypiperidin-1-yl)-pyrimidin-4-yl]-1H-pyrazolo[4,3-c]pyridine-3,6-diamine]: the concentration for a half-maximal effect (EC50) is 2.06 µM in experiment [1] and over 10 µM in experiment [4]. Moreover, the figures for the Ki in experiment [2] and in experiment [3] were 0.0098 µM and 0.0092 µM, respectively.
Regarding `CC(C)n1nc(NCCO)c2cnc(Nc3ccnc(-c4cnn(S(=O)(=O)C5CC5)c4)n3)cc21` [Example 6, 2-((6-((2-(1-(Cyclopropylsulfonyl)-1H-pyrazol-4-yl)pyrimidin-4-yl)amino)-1-isopropyl-1H-pyrazolo[4,3-c]pyridin-3-yl)amino)ethanol], the concentration for a half-maximal effect (EC50) was found to be 0.0738 µM in experiment [1] and 0.877 µM in experiment [4]. Besides, the Ki was 0.0012 µM in experiment [2] and 0.0009 µM in experiment [3].
